Measurements reported in patent US10857151B1, “Treatment of female genital schistosomiasis” (Villya LLC, priority 2020, dated 2020).

What was measured:
[1] = tested on: blood-borne infection of schistosomiasis; assay: Blood test for schistosomiasis using Schisto POC-CCA in FGS after treatment; type: in vivo, human; details: female with FGS; three doses of 20 mg/kg oral praziquantel; after two weeks
[2] = tested on: schistosomiasis worms in the vagina; assay: Microscope observation of vaginal swab sample slides for schistosomiasis worms in FGS after treatment; type: in vivo, human; details: after two weeks
Text: A single dose of Praziquantel as described in Example 1 was vaginally inserted into the subject.

With `O=C(C1CCCCC1)N1CC(=O)N2CCc3ccccc3C2C1` (stereo not drawn) [praziquantel] the “blood retested for schistosomiasis” value [1] was “negative for schistosomiasis”, the “observation of vaginal sample from brushing with a swab on microscope slides” value ([2]; female with FGS, three doses of 20 mg/kg oral praziquantel) was “live schistosomiasis worms still in the vagina” and the “slides observed under the microscope for schistosomiasis worms” value ([2]; single dose vaginally inserted as in Example 1 (600 mg praziquantel in 2.5 g K-Y Jelly), same subject after oral treatment) was “negative for schistosomiasis worms”.
